The values that follow come from article PMC2132602 (The Journal of Cell Biology, 1998).

The test addresses T1, RPK (Ripped Pocket) (Drosophila melanogaster, UniProt Q7KTQ9).
T1 sequence (Q7KTQ9 1-562): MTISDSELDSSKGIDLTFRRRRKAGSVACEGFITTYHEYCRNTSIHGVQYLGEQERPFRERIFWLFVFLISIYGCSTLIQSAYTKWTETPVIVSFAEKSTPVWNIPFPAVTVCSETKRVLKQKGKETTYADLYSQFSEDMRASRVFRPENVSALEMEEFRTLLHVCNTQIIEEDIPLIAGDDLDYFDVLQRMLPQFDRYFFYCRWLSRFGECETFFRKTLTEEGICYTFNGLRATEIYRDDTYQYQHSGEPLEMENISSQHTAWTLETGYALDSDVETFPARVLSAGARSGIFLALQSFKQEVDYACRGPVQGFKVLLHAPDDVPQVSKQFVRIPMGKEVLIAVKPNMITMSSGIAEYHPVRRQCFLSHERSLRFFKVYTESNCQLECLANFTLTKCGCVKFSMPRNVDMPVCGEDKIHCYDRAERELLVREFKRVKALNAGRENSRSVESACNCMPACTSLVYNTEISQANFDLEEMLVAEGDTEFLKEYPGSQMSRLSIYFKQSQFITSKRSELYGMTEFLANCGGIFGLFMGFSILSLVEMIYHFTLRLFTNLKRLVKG
Description: two-electrode voltage clamp, Xenopus oocytes, dose-response of Na+ current block. The format is cell-based. A general note: Two-electrode voltage clamp holds a large cell at a set potential and records current.

A word on the IC50: it is the midpoint of a concentration-inhibition curve. A low value points to higher potency.

Take `N=C(N)NC(=O)c1nc(Cl)c(N)nc1N` [amiloride]: the 50% inhibitory concentration (IC50) is 9 ± 0.1 µM.
